From ChEMBL document CHEMBL3120080, “Characterization of lovastatin-docosahexaenoate anticancer properties against breast cancer cells” (Bioorg Med Chem, 2014)
Activity calls are given as the source filed them. The calls are words filed in the database; no cut-off is given here.

Legend:
MDA-MB-231 [1] = assay: Downregulation of p21 expression in human PR, ER, HER2-negative human MDA-MB-231 cells at 10 uM after 24 hrs by western blot analysis; type: functional, cell-based
MDA-MB-231 [2] = assay: Cell cycle arrest in PR, ER, HER2-negative human MDA-MB-231 cells assessed as accumulation at S phase at 10 uM after 30 hrs by flow cytometer (reference value: 33.1 +/-0.3%); type: functional
MDA-MB-231 [3] = assay: Cell cycle arrest in PR, ER, HER2-negative human MDA-MB-231 cells assessed as accumulation at G2/M phase at 10 uM after 30 hrs by flow cytometer (reference value: 17.1 +/-2.1%); type: functional
MDA-MB-231 [4] = assay: Induction of apoptosis in human MDA-MB-231 cells assessed as apoptotic cells at 5 uM after 48 hrs by annexin V/propidium iodide based flow cytometry (reference value: 2.4 +/-0.5%); type: functional
MDA-MB-231 [5] = assay: Induction of apoptosis in human MDA-MB-231 cells assessed as necrotic cells at 1 uM after 48 hrs by annexin V/propidium iodide based flow cytometry (reference value: 4.4 +/-0.4%); type: functional
MDA-MB-231 [6] = assay: Growth inhibition of PR, ER, HER2-negative human MDA-MB-231 cells at <25 uM after 48 hrs by WST-1 assay; type: functional, cell-based
MDA-MB-231 [7] = assay: Induction of apoptosis in human MDA-MB-231 cells assessed as necrotic cells at 5 uM after 48 hrs by annexin V/propidium iodide based flow cytometry (reference value: 4.4 +/-0.4%); type: functional
MDA-MB-361 [8] = assay: Growth inhibition of ER-positive, HER2-positive human MDA-MB-361 cells after 48 hrs by WST-1 assay; type: functional, cell-based
MDA-MB-231 [9] = assay: Cell cycle arrest in PR, ER, HER2-negative human MDA-MB-231 cells assessed as accumulation at G0/G1 phase at 1 uM after 30 hrs by flow cytometer (reference value: 49.8 +/-1.5%); type: functional
MDA-MB-231 [10] = assay: Cell cycle arrest in PR, ER, HER2-negative human MDA-MB-231 cells assessed as accumulation at S phase at 1 uM after 30 hrs by flow cytometer (reference value: 33.1 +/-0.3%); type: functional
MDA-MB-231 [11] = assay: Cell cycle arrest in PR, ER, HER2-negative human MDA-MB-231 cells assessed as accumulation at G2/M phase at 1 uM after 30 hrs by flow cytometer (reference value: 17.1 +/-2.1%); type: functional
MDA-MB-468 [12] = assay: Growth inhibition of PR, ER, HER2-negative human MDA-MB-468 cells after 48 hrs by WST-1 assay; type: functional, cell-based
MDA-MB-231 [13] = assay: Induction of apoptosis in human MDA-MB-231 cells assessed as apoptotic cells at 1 uM after 48 hrs by annexin V/propidium iodide based flow cytometry (reference value: 2.4 +/-0.5%); type: functional
MDA-MB-231 [14] = assay: Induction of apoptosis in human MDA-MB-231 cells assessed as viable cells at 5 uM after 48 hrs by annexin V/propidium iodide based flow cytometry (reference value: 93.2 +/-0.9%); type: functional; settings: MDA-MB-231, 48 h, read-out: Activity
MDA-MB-231 [15] = assay: Induction of apoptosis in human MDA-MB-231 cells assessed as apoptotic cells at 10 uM after 48 hrs by annexin V/propidium iodide based flow cytometry (reference value: 2.4 +/-0.5%); type: functional
HMEC [16] = assay: Cytotoxicity against human HMEC assessed as growth inhibition after 48 hrs by WST-1 assay; type: cell-based
AU565 [17] = assay: Total growth inhibition of ER-negative, HER2-positive human AU565 cells at >15 uM after 48 hrs by WST-1 assay; type: functional, cell-based
MDA-MB-231 [18] = assay: Cell cycle arrest in PR, ER, HER2-negative human MDA-MB-231 cells assessed as accumulation at G0/G1 phase at 10 uM after 30 hrs by flow cytometer (reference value: 49.8 +/-1.5%); type: functional
MDA-MB-231 [19] = assay: Induction of apoptosis in human MDA-MB-231 cells assessed as necrotic cells at 10 uM after 48 hrs by annexin V/propidium iodide based flow cytometry (reference value: 4.4 +/-0.4%); type: functional
MCF7 [20] = assay: Growth inhibition of ER-positive, HER2-negative human MCF7 cells after 48 hrs by WST-1 assay; type: functional, cell-based
MDA-MB-231 [21] = assay: Induction of apoptosis in human MDA-MB-231 cells assessed as viable cells at 1 uM after 48 hrs by annexin V/propidium iodide based flow cytometry (reference value: 93.2 +/-0.9%); type: functional; settings: MDA-MB-231, 48 h, read-out: Activity
MDA-MB-231 [22] = assay: Induction of apoptosis in human MDA-MB-231 cells assessed as viable cells at 10 uM after 48 hrs by annexin V/propidium iodide based flow cytometry (reference value: 93.2 +/-0.9%); type: functional; settings: MDA-MB-231, 48 h, read-out: Activity
MDA-MB-468 [23] = assay: Cytotoxicity against PR, ER, HER2-negative human MDA-MB-468 cells after 48 hrs by WST-1 assay; type: functional, cell-based
MDA-MB-231 [24] = assay: Induction of p21 expression in human PR, ER, HER2-negative human MDA-MB-231 cells at 1 to 10 uM after 24 hrs by western blot analysis; type: functional, cell-based
MDA-MB-468 [25] = assay: Total growth inhibition of PR, ER, HER2-negative human MDA-MB-468 cells after 48 hrs by WST-1 assay; type: functional, cell-based
MCF7 [26] = assay: Total growth inhibition of ER-positive, HER2-negative human MCF7 cells after 48 hrs by WST-1 assay; type: functional, cell-based
AU565 [27] = assay: Growth inhibition of ER-negative, HER2-positive human AU565 cells after 48 hrs by WST-1 assay; type: functional, cell-based
MDA-MB-231 [28] = assay: Cytotoxicity against PR, ER, HER2-negative human MDA-MB-231 cells after 48 hrs by WST-1 assay; type: functional, cell-based
MDA-MB-231 [29] = assay: Total growth inhibition of PR, ER, HER2-negative human MDA-MB-231 cells at >10 uM after 48 hrs by WST-1 assay; type: functional, cell-based
MDA-MB-231 [30] = assay: Growth inhibition of PR, ER, HER2-negative human MDA-MB-231 cells at 1 uM after 48 hrs by WST-1 assay in presence of mevalonate; type: functional, cell-based
MDA-MB-231 [31] = assay: Growth inhibition of PR, ER, HER2-negative human MDA-MB-231 cells after 48 hrs by WST-1 assay in presence of geranylgeranyl pyrophosphate; type: functional, cell-based
HMEC [32] = assay: Cytotoxicity against human HMEC at >15 uM after 48 hrs by WST-1 assay; type: cell-based
AU565 [33] = assay: Growth inhibition of ER-negative, HER2-positive human AU565 cells at >5 uM after 48 hrs by WST-1 assay; type: functional, cell-based
AU565 [34] = assay: Cytotoxicity against ER-negative, HER2-positive human AU565 cells after 48 hrs by WST-1 assay; type: functional, cell-based
MDA-MB-361 [35] = assay: Cytotoxicity against ER-positive, HER2-positive human MDA-MB-361 cells at higher concentration after 48 hrs by WST-1 assay; type: functional, cell-based
MDA-MB-468 [36] = assay: Cytotoxicity against PR, ER, HER2-negative human MDA-MB-468 cells at >7.5 uM after 48 hrs by WST-1 assay; type: functional, cell-based
Serum = assay: Stability of the compound in mouse serum at 1 mM after 2 hrs by RP-HPLC analysis; type: ADME; settings: 1000 µM
MDA-MB-231 [37] = assay: Stability of the compound in human MDA-MB-231 cells assessed as DHA content at 5 uM after 24 hrs by gas chromatography; type: ADME, cell-based; settings: mda-mb-231, 24 h
HMEC [38] = assay: Cytotoxicity against human HMEC at 25 uM after 48 hrs by WST-1 assay; type: cell-based
MDA-MB-231 [39] = assay: Cytotoxicity against PR, ER, HER2-negative human MDA-MB-231 cells assessed as decrease in cell viability at >5 uM after 48 hrs by WST-1 assay; type: functional, cell-based

| SMILES | inhibition (MDA-MB-231 [1]) | Activity (MDA-MB-231 [2]) [%] | Activity (MDA-MB-231 [3]) [%] | Activity (MDA-MB-231 [4]) [%] | Activity (MDA-MB-231 [5]) [%] | Activity (MDA-MB-231 [7]) [%] | growth inhibition (GI) (MDA-MB-361 [8]) | Activity (MDA-MB-231 [9]) [%] | Activity (MDA-MB-231 [10]) [%] | Activity (MDA-MB-231 [11]) [%] | Activity (MDA-MB-231 [13]) [%] | viability at 5 µM (MDA-MB-231 [14]) [%] | Activity (MDA-MB-231 [15]) [%] | Activity (HMEC [16]) | Activity (MDA-MB-231 [18]) [%] | Activity (MDA-MB-231 [19]) [%] | growth inhibition (GI) (MCF7 [20]) | viability at 1 µM (MDA-MB-231 [21]) [%] | viability at 10 µM (MDA-MB-231 [22]) [%] | growth inhibition (GI) (MDA-MB-231 [30]) | further results |
| --- | --- | --- | --- | --- | --- | --- | --- | --- | --- | --- | --- | --- | --- | --- | --- | --- | --- | --- | --- | --- | --- |
| CC/C=C\C/C=C\C/C=C\C/C=C\C/C=C\C/C=C\CCC(=O)O [DOCONEXENT] | Active | 33 | 16.2 | 1.1 | 2.9 | 2.4 | Active | 48.7 | 33.8 | 17.5 | 2.6 | 96.5 | 1.9 | Dose-dependent effect | 50.8 | 5.6 | Active | 94.5 | 92.5 | – | growth inhibition (GI) (MDA-MB-231 [6]): Active; growth inhibition (GI) (MDA-MB-468 [12]): Active; TGI (AU565 [17]): Active |
| CC[C@H](C)C(=O)O[C@H]1C[C@@H](C)C=C2C=C[C@H](C)[C@H](CC[C@@H]3C[C@@H](O)CC(=O)O3)[C@H]21 [LOVASTATIN] | – | 9.8 | 6.3 | 4.9 | 7.8 | 10.8 | Active | 74.7 | 16.3 | 9 | 2.5 | 84.3 | 4.6 | Toxic | 83.9 | 11.2 | – | 89.7 | 84.2 | inactive | Activity (MDA-MB-468 [23]): inactive; Activity (MDA-MB-231 [24]): Active; TGI (MDA-MB-468 [25]): Active; TGI (MCF7 [26]): Active; growth inhibition (GI) (AU565 [27]): Active; Activity (MDA-MB-231 [28]): inactive; TGI (MDA-MB-231 [29]): Active; growth inhibition (GI) (MDA-MB-231 [31]): inactive |
| CC/C=C\C/C=C\C/C=C\C/C=C\C/C=C\C/C=C\CCC(=O)O[C@H]1CC(=O)O[C@H](CC[C@@H]2[C@@H]3C(=C[C@H](C)C[C@@H]3OC(=O)[C@@H](C)CC)C=C[C@@H]2C)C1 | Active | 34.8 | 14.1 | 7.2 | 6.7 | 9.6 | – | 47.8 | 34.9 | 17.3 | 9.2 | 83.3 | 24.6 | – | 51.2 | 35.4 | Active | 84.1 | 40 | Active | Activity (HMEC [32]): Toxic; growth inhibition (GI) (AU565 [33]): Active; Activity (AU565 [34]): inactive; Activity (MDA-MB-361 [35]): Active; Activity (MDA-MB-468 [36]): Active; Stability (Serum): Stable; Stability (MDA-MB-231 [37]): Stable; Activity (HMEC [38]): 25%; Activity (MDA-MB-231 [39]): Active |
